The record followed here is ChEMBL document CHEMBL1139202, “Inhibition of mycobacterial arylamine N-acetyltransferase contributes to anti-mycobacterial activity of Warburgia salutaris” (Bioorg Med Chem, 2007).

The assay relates to Mycobacterium tuberculosis. Briefly: Antimycobacterial activity against wild type Mycobacterium bovis BCG after 21 days. The format is functional, organism-based. To be noted: variant bovis BCG.

Consider `CC(=O)O[C@@H]1C=C2C(=O)O[C@@H](O)[C@]2(O)[C@@]2(C)CCCC(C)(C)[C@H]12`, for which the Activity result was “Dose-dependent effect”.
